# In BindingDB's records for doi:10.1021/jm060460o (University of Michigan, 2006):
# Experiment: Inhibition of growth of human PC3 cell overexpressing Bcl2
row,SMILES,IC50
1,"CC(C)c1ccccc1Cc1cc(C(=O)Nc2ccc(S(=O)(=O)c3ccccc3C(C)(C)C)cc2)c(O)c(O)c1O [(N-[(2-tert-butylbenzenesulfonyl)phenyl]-2,3,4-trihydroxy-5-(2-isopropylbenzyl)benzamide]",0.2 µM
2,"COc1c(Cc2ccccc2C(C)C)cc(C(=O)Nc2ccc(S(=O)(=O)c3ccccc3C(C)(C)C)cc2)c(OC)c1OC [N-[(2-Tert-butyl-benzenesulfonyl)-phenyl]-2,3,4-trimethoxyl-5-(2-isopropyl-benzyl)-benzamide]",> 100 µM

# Now from value to molecule:
row,IC50,SMILES
1,4 µM,"O=C(Nc1ccc(S(=O)(=O)c2ccccc2)cc1)c1cc(Cc2ccccc2)c(O)c(O)c1O [N-(benzenesulfonyl-phenyl)-2,3,4-trihydroxy-5-benzyl-benzamide]"
2,7 µM,"CC(C)c1cc(C(=O)Nc2ccccc2)c(O)c(O)c1O [2,3,4-trihydroxy-5-isopropyl-N-phenyl-benzamide]"
3,5 µM,"O=C(Nc1ccccc1)c1cc(Cc2ccccc2)c(O)c(O)c1O [N-phenyl-2,3,4-trihydroxy-5-benzyl-benzamide]"
